Measurements as given in the NIST ThermoML archive (doi:10.1016/j.jct.2007.05.011).

Assay: xn = mol fraction of the nth substance listed
Settings: 101 kPa, Liquid; for mass density: Vibrating tube method

NCCO.O=CO [2-hydroxyethylammonium formate] + CO
Settings | mass density [kg/m3] | speed of sound [m/s]
305.65 K, x2 = 0 | – | 1690.8
305.65 K, x2 = 0.055 | – | 1708.1
305.65 K, x2 = 0.098 | – | 1696.5
305.65 K, x2 = 0.193 | – | 1665.8
305.65 K, x2 = 0.296 | – | 1628.2
305.65 K, x2 = 0.399 | – | 1584.1
305.65 K, x2 = 0.5 | – | 1532.8
305.65 K, x2 = 0.598 | – | 1474
305.65 K, x2 = 0.701 | – | 1403.2
305.65 K, x2 = 0.799 | – | 1318
305.65 K, x2 = 0.9 | – | 1213.2
305.65 K, x2 = 0.951 | – | 1148.9
308.15 K, x2 = 0 | 1169.39 | 1684.8
308.15 K, x2 = 0.055 | 1162.82 | 1702.9
308.15 K, x2 = 0.098 | 1156.3 | 1691.3
308.15 K, x2 = 0.193 | 1139.55 | 1660.5
308.15 K, x2 = 0.296 | 1118.84 | 1622.8
308.15 K, x2 = 0.399 | 1094.27 | 1578.5
308.15 K, x2 = 0.5 | 1065.38 | 1527.1
308.15 K, x2 = 0.598 | 1031.9 | 1468
308.15 K, x2 = 0.701 | 990.06 | 1396.8
308.15 K, x2 = 0.799 | 937.959 | 1311.2
308.15 K, x2 = 0.9 | 869.95 | 1206
308.15 K, x2 = 0.951 | 826.572 | 1141.2
310.65 K, x2 = 0 | 1167.62 | 1678.7
310.65 K, x2 = 0.055 | 1161.16 | 1697.8
310.65 K, x2 = 0.098 | 1154.64 | 1686.1
310.65 K, x2 = 0.193 | 1137.87 | 1655.3
310.65 K, x2 = 0.296 | 1117.13 | 1617.4
310.65 K, x2 = 0.399 | 1092.53 | 1573
310.65 K, x2 = 0.5 | 1063.59 | 1521.4
310.65 K, x2 = 0.598 | 1030.06 | 1462
310.65 K, x2 = 0.701 | 988.146 | 1390.5
310.65 K, x2 = 0.799 | 935.95 | 1304.5
310.65 K, x2 = 0.9 | 867.803 | 1198.7
310.65 K, x2 = 0.951 | 824.316 | 1133.6
313.15 K, x2 = 0 | 1165.84 | 1672.7
313.15 K, x2 = 0.055 | 1159.51 | 1692.7
313.15 K, x2 = 0.098 | 1152.98 | 1681
313.15 K, x2 = 0.193 | 1136.19 | 1650
313.15 K, x2 = 0.296 | 1115.42 | 1612
313.15 K, x2 = 0.399 | 1090.78 | 1567.5
313.15 K, x2 = 0.5 | 1061.81 | 1515.6
313.15 K, x2 = 0.598 | 1028.22 | 1456
313.15 K, x2 = 0.701 | 986.228 | 1384.2
313.15 K, x2 = 0.799 | 933.936 | 1297.8
313.15 K, x2 = 0.9 | 865.647 | 1191.4
313.15 K, x2 = 0.951 | 822.053 | 1125.9
315.65 K, x2 = 0 | 1164.06 | 1666.7
315.65 K, x2 = 0.055 | 1157.86 | 1687.6
315.65 K, x2 = 0.098 | 1151.33 | 1675.8
315.65 K, x2 = 0.193 | 1134.51 | 1644.8
315.65 K, x2 = 0.296 | 1113.71 | 1606.7
315.65 K, x2 = 0.399 | 1089.03 | 1561.9
315.65 K, x2 = 0.5 | 1060.02 | 1509.9
315.65 K, x2 = 0.598 | 1026.37 | 1450.1
315.65 K, x2 = 0.701 | 984.31 | 1377.9
315.65 K, x2 = 0.799 | 931.919 | 1291.2
315.65 K, x2 = 0.9 | 863.489 | 1184.2
315.65 K, x2 = 0.951 | 819.788 | 1118.4
318.15 K, x2 = 0 | 1162.29 | 1660.8
318.15 K, x2 = 0.055 | 1156.21 | 1682.5
318.15 K, x2 = 0.098 | 1149.67 | 1670.7
318.15 K, x2 = 0.193 | 1132.83 | 1639.5
318.15 K, x2 = 0.296 | 1112 | 1601.3
318.15 K, x2 = 0.399 | 1087.29 | 1556.4
318.15 K, x2 = 0.5 | 1058.22 | 1504.2
318.15 K, x2 = 0.598 | 1024.52 | 1444.2
318.15 K, x2 = 0.701 | 982.388 | 1371.7
318.15 K, x2 = 0.799 | 929.9 | 1284.6
318.15 K, x2 = 0.9 | 861.326 | 1177.1
318.15 K, x2 = 0.951 | 817.518 | 1110.9
320.65 K, x2 = 0 | 1160.51 | 1654.8
320.65 K, x2 = 0.055 | 1154.57 | 1677.4
320.65 K, x2 = 0.098 | 1148.03 | 1665.5
320.65 K, x2 = 0.193 | 1131.15 | 1634.3
320.65 K, x2 = 0.296 | 1110.29 | 1596
320.65 K, x2 = 0.399 | 1085.54 | 1550.9
320.65 K, x2 = 0.5 | 1056.43 | 1498.5
320.65 K, x2 = 0.598 | 1022.67 | 1438.3
320.65 K, x2 = 0.701 | 980.467 | 1365.5
320.65 K, x2 = 0.799 | 927.874 | 1278
320.65 K, x2 = 0.9 | 859.158 | 1170
320.65 K, x2 = 0.951 | 815.245 | 1103.5
323.15 K, x2 = 0 | 1158.73 | 1648.9
323.15 K, x2 = 0.055 | 1152.94 | 1672.4
323.15 K, x2 = 0.098 | 1146.39 | 1660.5
323.15 K, x2 = 0.193 | 1129.49 | 1629.2
323.15 K, x2 = 0.296 | 1108.59 | 1590.7
323.15 K, x2 = 0.399 | 1083.8 | 1545.5
323.15 K, x2 = 0.5 | 1054.64 | 1492.9
323.15 K, x2 = 0.598 | 1020.83 | 1432.5
323.15 K, x2 = 0.701 | 978.549 | 1359.5
323.15 K, x2 = 0.799 | 925.853 | 1271.4
323.15 K, x2 = 0.9 | 856.995 | 1163
323.15 K, x2 = 0.951 | 812.98 | 1096.1
